From ChEMBL document CHEMBL4613256, “Megastigmane Derivatives from the Cladodes of Opuntia humifusa and Their Nitric Oxide Inhibitory Activities in Macrophages” (J Nat Prod, 2020)
Active and inactive are the calls of the source. The rule behind the calls is not given here.

Legend:
RAW264.7 [1] = test: Cytotoxicity against mouse RAW264.7 cells assessed as reduction in cell viability at 6.25 to 100 uM after 24 hrs by EZ-Cytox cell viability assay; type: cell-based; settings: raw264.7, 24 h
RAW264.7 [2] = test: Inhibition of LPS-induced NO production in mouse RAW264.7 cells by Griess reagent based assay; type: functional, cell-based
RAW264.7 [3] = test: Antiinflammatory activity against mouse RAW264.7 cells assessed as reduction in LPS-induced iNOS protein expression at 10 to 50 uM after 24 hrs by Western blot analysis; type: functional, cell-based
RAW264.7 [4] = test: Antiinflammatory activity against mouse RAW264.7 cells assessed as reduction in LPS-induced iNOS protein expression at 25 to 100 uM after 24 hrs by Western blot analysis; type: functional, cell-based

CC(C)(O)c1ccc(CO[C@@H]2O[C@H](CO)[C@@H](O)[C@H](O)[C@H]2O)cc1
Activity (RAW264.7 [1]): Non-Toxic

COc1cc(/C=C/C(=O)O[C@@H]2O[C@H](CO)[C@@H](O)[C@H](O)[C@H]2O)ccc1O
Activity (RAW264.7 [1]): Non-Toxic

C[C@@H](/C=C/[C@H]1C(CO)=CC(=O)CC1(C)C)O[C@@H]1O[C@H](CO)[C@@H](O)[C@H](O)[C@H]1O
Activity (RAW264.7 [1]): Non-Toxic

O=C1c2c(O)cc(O[C@@H]3O[C@H](CO)[C@@H](O)[C@H](O)[C@H]3O)cc2O[C@H](c2ccc(O)c(O)c2)[C@H]1O
IC50 (RAW264.7 [2]): 43.8 µM | inhibition (RAW264.7 [2]): Dose-dependent effect | Activity (RAW264.7 [3]): Active | Activity (RAW264.7 [1]): Non-Toxic

CC1=CC(=O)CC(C)(C)[C@H]1CC[C@@H](O)CO[C@@H]1O[C@H](CO)[C@@H](O)[C@H](O)[C@H]1O
Activity (RAW264.7 [1]): Non-Toxic

CC1=CC(=O)CC(C)(C)[C@@H]1/C=C/[C@H](CO)O[C@@H]1O[C@H](CO)[C@@H](O)[C@H](O)[C@H]1O
Activity (RAW264.7 [1]): Non-Toxic

CC1=CC(=O)CC(C)(C)[C@@]1(O)/C=C/[C@H](CO)O[C@@H]1O[C@H](CO)[C@@H](O)[C@H](O)[C@H]1O
Activity (RAW264.7 [1]): Non-Toxic

O=C1c2c(O)cc(O)cc2O[C@H](c2ccc(O)cc2)[C@H]1O [DIHYDROKAEMPFEROL]
Activity (RAW264.7 [1]): Non-Toxic

COc1cc(-c2oc3cc(O)cc(O)c3c(=O)c2O[C@@H]2O[C@H](CO)[C@@H](O)[C@H](O)[C@H]2O)ccc1O
Activity (RAW264.7 [1]): Non-Toxic

CC1=CC(=O)CC(C)(C)[C@H]1CC[C@@H](CO)O[C@@H]1O[C@H](CO)[C@@H](O)[C@H](O)[C@H]1O
Activity (RAW264.7 [1]): Non-Toxic

COc1cc(-c2oc3cc(O)cc(O)c3c(=O)c2O[C@@H]2O[C@H](CO[C@@H]3O[C@@H](C)[C@H](O)[C@@H](O)[C@H]3O)[C@@H](O)[C@H](O)[C@H]2O)ccc1O [NARCISSIN]
Activity (RAW264.7 [1]): Non-Toxic

O=C1C[C@@H](c2cc(O)cc(O)c2)Oc2cc(O)cc(O)c21
Activity (RAW264.7 [1]): Non-Toxic

COc1cc(/C=C/CO)cc(OC)c1O[C@@H]1O[C@H](CO)[C@@H](O)[C@H](O)[C@H]1O [SYRINGIN]
Activity (RAW264.7 [1]): Non-Toxic

COc1cc(-c2oc3cc(O)cc(O)c3c(=O)c2O[C@@H]2O[C@H](CO)[C@@H](O)[C@H](O)[C@H]2O)ccc1O[C@@H]1O[C@H](CO)[C@@H](O)[C@H](O)[C@H]1O
Activity (RAW264.7 [1]): Non-Toxic

CC1=CC(=O)CC(C)(C)[C@H]1CC[C@@H](O)CO
Activity (RAW264.7 [1]): Non-Toxic

O=c1c(O)c(-c2ccc(O)c(O)c2)oc2cc(O)cc(O)c12 [QUERCETIN]
IC50 (RAW264.7 [2]): 22.7 µM

O=C1c2c(O)cc(O)cc2O[C@H](c2ccc(O)c(O)c2)[C@H]1O [(+)-TAXIFOLIN]
IC50 (RAW264.7 [2]): 81.6 µM | inhibition (RAW264.7 [2]): Dose-dependent effect | Activity (RAW264.7 [4]): Active | Activity (RAW264.7 [1]): Non-Toxic

COc1cc(/C=C/C(=O)O)cc(OC)c1O[C@@H]1O[C@H](CO)[C@@H](O)[C@H](O)[C@H]1O
Activity (RAW264.7 [1]): Non-Toxic

CC1=CC(=O)CC(C)(C)[C@H]1/C=C/[C@@H](CO)O[C@@H]1O[C@H](CO)[C@@H](O)[C@H](O)[C@H]1O
Activity (RAW264.7 [1]): Non-Toxic

CC1=CC(=O)CC(C)(C)[C@@]1(O)/C=C/[C@H](C)O[C@@H]1O[C@H](CO)[C@@H](O)[C@H](O)[C@H]1O [6S,9S-ROSEOSIDE]
Activity (RAW264.7 [1]): Non-Toxic

COc1cc([C@H]2OC[C@H]3[C@@H]2CO[C@@H]3c2cc(OC)c(O[C@@H]3O[C@H](CO)[C@@H](O)[C@H](O)[C@H]3O)c(OC)c2)cc(OC)c1O
Activity (RAW264.7 [1]): Non-Toxic

COc1cc(C(C)=O)ccc1O[C@@H]1O[C@H](CO)[C@@H](O)[C@H](O)[C@H]1O [ANDROSIN]
Activity (RAW264.7 [1]): Non-Toxic
